≈ marks a conversion by molar mass, not a printed value. Like-named read-outs stand apart in the source and are kept apart here.
Experiments:
Type in all cases: cell-based
[1] = test system: EcR1: Penicillinase-Producing Escherichia coli without Associated Resistance; assay: Antibiogram by the disk diffusion technique; details: Table A1; for Diameter: EcR1, disk diffusion; for Results: EcR1, interpretation of the diameter against Dmin Dmax
Method: (§1) 5.1 EcR1: Penicillinase-Producing Escherichia coli without Associated Resistance The bacterial and antibiogramidentification is carried out by the VITEK 2 system (bioMérieux) and by the disk diffusion technique.

[2] = test system: EcR2: Cephalosporinase-Hyperproducing Strain of Escherichia coli; assay: Antibiogram, MIC by the VITEK 1 system; details: for MIC: Escherichia coli, read-out: MIC
Method: (§2) The bacterial and antibiogramidentification is carried out by the VITEK 1 system (bioMérieux) and by the disk diffusion technique

[3] = test system: EcR1: Penicillinase-Producing Escherichia coli without Associated Resistance; assay: Antibiogram, MIC by the VITEK 2 system; details: for CA-SFM Interpretation: EcR1, MIC against Cc CA-SFM 2011; for CLSI Interpretation: EcR1, MIC against Cc CLSI 2011; for Results: EcR1, interpretation of the MIC, Table A1; for MIC: Escherichia coli
Method: as §1

[4] = test system: EcR3: ESBL-Producing Escherichia coli; assay: Antibiogram by the disk diffusion technique; details: for CA-SFM Interpretation: Cd CA-SFM 2011; for CLSI Interpretation: Cd CLSI 2011; for Results: Table C1, against Dmin Dmax; for diameter in mm: Table C2
Method: The bacterial and antibiogramidentification is carried out by the VITEK 2 system (bioMerieux) and by the disk diffusion technique

[5] = test system: EcR2: Cephalosporinase-Hyperproducing Strain of Escherichia coli; assay: Antibiogram by the disk diffusion technique
Method: as §2

[6] = test system: SaR3: Meticillin-Resistant Staphylococcus aureus; assay: Antibiogram by the disk diffusion technique; details: for CA-SFM Interpretation: Cd CA-SFM 2011; for diameter in mm: Table E2; for Diameter: Table E1; for Results: Table E1, against Dmin Dmax
Method: (§3) The bacterial and antibiogramidentification is carried out by the VITEK 2 system (bioMérieux) and by the disk diffusion technique

[7] = test system: SaR4: Meticillin-Resistant Staphylococcus aureus; assay: Antibiogram, MIC by the VITEK 2 system; details: SaR4; for MIC: Staphylococcus aureus, read-out: MIC
Method: as §3

[8] = test system: SaR1: Meticillin-Resistant Staphylococcus aureus without Associated Resistance; assay: Antibiogram, inhibition diameter (Table D1); details: for Results: from diameter, against Dmin Dmax
Method: (§4) The bacterial and antibiogramidentification is carried out by the VITEK 2 system (bioMérieux)

[9] = test system: SaR1: Meticillin-Resistant Staphylococcus aureus without Associated Resistance; assay: Antibiogram, MIC by the VITEK 2 system; details: SaR1
Method: as §4

[10] = EcR1, Table A2, read-out: MIC mg/L (diameter in mm)
[11] = EcR1, VITEK 2, Table A1, read-out: MIC

## CC(=O)OCC1=C(C(=O)O)N2C(=O)[C@@H](NC(=O)Cc3cccs3)[C@H]2SC1 [C1G, Cefalotine]
[1]
  Diameter: 17 mm
  Results: Intermediate
[2]; EcR2, Table B1
  Results: Resistant
[2]; EcR2, from MIC, Cc CA-SFM 2011
  CA-SFM Interpretation: Resistant
[2]; EcR2, from MIC, Cc CLSI 2011
  CLSI Interpretation: Resistant
[2]; EcR2, from MIC, Cc EUCAST 2011
  EUCAST Interpretation: Resistant
[2]; EcR2, VITEK 1, Table B1
  MIC: ≥ 64 µg/mL
[2]; EcR2, Table B2, MIC
  MIC: ≥ 64 µg/mL
[3]
  CA-SFM Interpretation: Susceptible
  CLSI Interpretation: Susceptible
  Results: Susceptible
[3]; EcR1, MIC against Cc EUCAST 2011
  EUCAST Interpretation: Susceptible
[3]; [10]
  MIC: 4 mg/L (≈ 10.1 µM)
[3]; [11]
  MIC: 4 mg/L (≈ 10.1 µM)
[4]
  CA-SFM Interpretation: Resistant
  CLSI Interpretation: Resistant
  Results: Resistant
  diameter in mm: 6 mm
[4]; Table C1
  Diameter: 6 mm

## CO[C@@]1(NC(=O)Cc2cccs2)C(=O)N2C(C(=O)O)=C(COC(N)=O)CS[C@@H]21 [Cefoxitin]
[1]
  Diameter: 24 mm
  Results: Susceptible
[5]; EcR2, disk diffusion, Table B1
  Diameter: 11
[5]; EcR2, rows that print a diameter, Table B1
  Results: Resistant
[5]; EcR2, Table B2, diameters
  Diameter: 11 mm
[5]; EcR2, from diameter, CA-SFM 2011
  CA-SFM Interpretation: Resistant
[5]; EcR2, from diameter, CLSI 2011
  CLSI Interpretation: Resistant
[5]; EcR2, from diameter, EUCAST 2011
  EUCAST Interpretation: Resistant
[6]
  CA-SFM Interpretation: Resistant
  diameter in mm: 17 mm
[6]; Cd CLSI 2011
  CLSI Interpretation: Resistant
[6]; Cd EUCAST 2011
  EUCAST Interpretation: Resistant
[3]
  CA-SFM Interpretation: Susceptible
  CLSI Interpretation: Susceptible
  Results: Susceptible
[3]; [10]
  MIC: ≤ 4 mg/L
[3]; [11]
  MIC: ≤ 4 mg/L
[4]
  CA-SFM Interpretation: Resistant
  CLSI Interpretation: Resistant
  Results: Intermediate
  diameter in mm: 6 mm
[4]; Cd EUCAST 2011
  EUCAST Interpretation: Resistant

## O=C(N[C@H](CO)[C@H](O)c1ccc([N+](=O)[O-])cc1)C(Cl)Cl [Chloramphenicol]
[6]
  Diameter: 6 mm
  Results: Resistant
[7]; Table F1, MIC
  Results: Susceptible
[7]; Table F1
  MIC: 8 µg/mL (≈ 24.8 µM)
[8]
  Diameter: 25 mm
  Results: Susceptible

## CCC[C@@H]1C[C@@H](C(=O)N[C@@H]([C@H]2O[C@H](SC)[C@H](O)[C@@H](O)[C@H]2O)[C@@H](C)O)N(C)C1 [Lincomycin]
[6]
  CA-SFM Interpretation: Susceptible
  Diameter: 23 mm
  Results: Susceptible
  diameter in mm: 23 mm
[7]; Table F1, MIC
  Results: Resistant
[7]; from MIC, Cc CA-SFM 2011
  CA-SFM Interpretation: Resistant
[7]; Table F1
  MIC: ≥ 16 µg/mL
[7]; Table F2, MIC
  MIC: ≥ 16 µg/mL
[8]
  Diameter: 24 mm
  Results: Susceptible
[9]; Cc CA-SFM 2011
  CA-SFM Interpretation: Susceptible
[9]; Table D1, from MIC
  Results: Susceptible
[9]; Table D2
  MIC mg/L: ≦1 mg/L
[9]; Staphylococcus aureus, Table D1, read-out: MIC
  MIC: ≤ 1 µg/mL

Reference: patent US20140066365A1, “USE OF CALIXARENES ASSOCIATED WITH AN ANTIBIOTIC IN THE TREATMENT OF BACTERIAL INFECTIONS” (priority 2011, published 2014)
